Where “and” joins values, the source holds several entries; their conditions need not be identical. Equal values may be shown once.
Tested on: histone modifications in MCF-7 cells
Experiment: Histone modification analysis by bottom-up LC-MS/MS
Assay type: cell-based
Conditions: Replicates 1-3
Source text: In this approach. […] Histones are then extracted from cell pellets and chemically derivatized with propionic anhydride, digested with trypsin, subjected to a second round of propionylation, and analyzed by LC-MS/MS. Measuring the relative intensity of modified versus unmodified forms of individual histone peptides enables simultaneous monitoring of multiple potential biomarkers of MYST inhibition. To minimize false positives, we focused on abundant and reproducible modifications (average stoichiometry of greater than 1% across triplicate samples, standard deviation less than or equal to the average measurement). To account for potential histone modification crosstalk, changes in both acetylated and methylated peptides were evaluated. 38 modified peptides passed this reproducible detection threshold including several established KAT biomarkers[41] including H3K9Ac (KAT2A/B), H3K18Ac (KAT3A/B), H3K14Ac (KAT7), H3K23Ac (KAT6A/B), H4K16Ac (KAT8), and H2A.ZK4/K7Ac (KAT5; Fig. 4B).
Histone modification analysis
MCF-7 cells were cultured at 37 °C under 5% CO2 in EMEM (Quality Biological, 112-016-101) with 0.01 mg/mL human recombinant insulin (Sigma Aldrich, 91077C), 2 mM L-glutamine (Quality Biological, 118- […]
human recombinant insulin.
1119, WM-3835). Following 24 h inhibitor treatment, cells were washed with ice-cold 1× PBS and scraped in 150 µL of Nuclear Isolation Buffer (NIB) containing 0.1% NP-40 for histone extraction using a modified protocol from the Garcia laboratory. 9 Briefly, cell suspensions were incubated on ice for 5 minutes, and […]
nuclei were pelleted by centrifugation (600 rcf, 4°C, 5 min). Pelleted nuclei were washed twice with 150 μL of detergent-free NIB buffer, followed by centrifugation (600 rcf, 4°C, 5 min) to remove all detergent.
Nuclei were then resuspended in 400 μL of 0.4 N H₂SO₄ and rotated at 4°C overnight for acid extraction of histones. The following day, samples were centrifuged (11,000 rcf, 4°C, 10 min) and the histone-containing supernatant was transferred to a fresh tube. Trichloroacetic acid (100% TCA) was added to achieve a final concentration of 20% (v/v), tubes were inverted once to mix, and histone precipitation was performed on ice for at least 3 hours or overnight at 4°C. Precipitated histones were collected by centrifugation (11,000 rcf, 4°C, 10 min) and the supernatant carefully removed, leaving a visible film of histones on the tube wall or bottom. Histone pellets were subjected to sequential washes with 1 mL of ice-cold acidified acetone (0.1% 12 N HCl) followed by 1 mL of 100% ice-cold acetone, with centrifugation (11,000 rcf, 4°C, 5 min) after each wash. Samples were air-dried at room temperature, resuspended in 40 µL of ddH₂O, and protein […]
analysis, 1-2 µg of purified histones were loaded per lane and processed according to the general immunoblotting protocol described in General Materials and Methods.
Analysis of histone modifications by LC-MS/MS
Preparation of histone samples for LC-MS/MS was performed analogously to the procedure for immunoblotting above, with the following modifications. MCF7 cells (4.2 × 106) were seeded in 15 cm dishes and treated with PF-9363 or vehicle. Experiments were performed in triplicate. Following treatment and PBS washing, cells were scraped and collected in 15 mL falcon tubes, pelleted (500 rcf, 4°C, 5 min), resuspended in 1 mL cold PBS, transferred to microcentrifuge tubes, and pelleted again before flash-freezing in liquid nitrogen for storage at -80°C. For extraction, cell pellets (~100 μL) were resuspended in NIB buffer at a 1:10 ratio, and cells were lysed with NIB buffer containing 0.2% NP-40 for 8 minutes on ice. Nuclei were pelleted at 1,000 rcf for 8 minutes and washed three times with 500 μL detergent-free NIB buffer. Histones were extracted using 800 μL of 0.2 M H₂SO₄, and after centrifugation (3,400 rcf, 4°C, 10

## COc1cccc(OC)c1S(=O)(=O)Nc1noc2cc(Cn3cccn3)cc(OC)c12 [PF-9363]
PF-9363 1
  Ratio, H2A1_4_11 unmod: 0.8988 and 0.8885 and 0.9043
  Ratio, H2A1_36_42 unmod: 0.9987 (2×) and 0.999
  Ratio, H2A3_36_42 unmod: 1
  Ratio, H2AJ_4_11 K5acK9ac: 0.8841 and 0.8218 and 0.8897
  Ratio, H2AV_1_19 K4ac: 0.04613 and 0.03379 and 0.05235
  Ratio, H2AV_1_19 unmod: 0.7904 and 0.9003 and 0.7876
  Ratio, H2AX_4_11 unmod: 0.3103 and 0.2578 and 0.2996
  Ratio, H2AX_36_42 unmod: 1
  Ratio, H2AZ_1_19 K11ac: 0.007104 and 0.02367 and 0.02119
  Ratio, H2AZ_1_19 unmod: 0.8748 and 0.8677 and 0.8766
  Ratio, H3_73_83 K79me1: 0.08571 and 0.09293 and 0.08865
  Ratio, H3_73_83 K79me2: 0.07582 and 0.06553 and 0.05074
  Ratio, H3_73_83 unmod: 0.8373 and 0.84 and 0.8592
  Ratio, H4_4_17 K12acK16ac: 0.009843 and 0.01149 and 0.01038
  Ratio, H4_4_17 unmod: 0.6943 and 0.6691 and 0.6837
  Ratio, H4_20_23 K20me1: 0.04112 and 0.02779 and 0.03237
  Ratio, H4_20_23 unmod: 0.02967 and 0.03053 and 0.03337
PF-9363 10
  Ratio, H2A1_1_11 K5ac: 0.7349 and 0.6528 and 0.8541
  Ratio, H2A1_4_11 K5ac: 0.05941 and 0.05561 and 0.05439
  Ratio, H2A1_4_11 K9ac: 0.0376 and 0.02679 and 0.04578
  Ratio, H2A1_4_11 unmod: 0.8844 and 0.9105 and 0.8938
  Ratio, H2A1_36_42 unmod: 0.9994 and 0.9989 and 0.9987
  Ratio, H2A3_36_42 unmod: 1
  Ratio, H2AJ_4_11 K5acK9ac: 0.87 and 0.9304 and 0.8571
  Ratio, H2AV_1_19 K4ac: 0.03545 and 0 and 0.04516
  Ratio, H2AV_1_19 unmod: 0.7519 and 0 and 0.8693
  Ratio, H2AX_4_11 unmod: 0.3078 and 0.3089 and 0.315
  Ratio, H2AX_36_42 unmod: 0.9999 and 1 (2×)
  Ratio, H2AZ_1_19 K11ac: 0.002627 and 0 and 0.03573
  Ratio, H2AZ_1_19 unmod: 0.8481 and 0 and 0.8795
  Ratio, H3_73_83 K79me1: 0.0968 and 0.09055 and 0.1061
  Ratio, H3_73_83 K79me2: 0.04989 and 0 and 0.05862
  Ratio, H3_73_83 unmod: 0.8517 and 0.9094 and 0.8343
  Ratio, H4_4_17 K12acK16ac: 0.004929 and 0.3101 and 0.006064
  Ratio, H4_4_17 unmod: 0.8097 and 0 and 0.7957
  Ratio, H4_20_23 K20me1: 0.03215 and 0 and 0.02863
  Ratio, H4_20_23 unmod: 0.01905 and 0.02691 and 0.02102
PF-9363 30
  Ratio, H2A1_1_11 K5ac: 0.8425 and 0.9367 and 0.7907
  Ratio, H2A1_4_11 K5ac: 0.04965 and 0.0448 and 0.04948
  Ratio, H2A1_4_11 K9ac: 0.02646 and 0.04262 and 0.03503
  Ratio, H2A1_4_11 unmod: 0.9191 and 0.9063 and 0.9088
  Ratio, H2A1_36_42 unmod: 0.9989 and 0.9987 and 0.9988
  Ratio, H2A3_36_42 unmod: 1
  Ratio, H2AJ_4_11 K5acK9ac: 0.9299 and 0.8746 and 0.8721
  Ratio, H2AV_1_19 K4ac: 0.04726 and 0.04134 and 0.0354
  Ratio, H2AV_1_19 unmod: 0.8732 and 0.735 and 0.7339
  Ratio, H2AX_4_11 unmod: 0.3537 and 0.3214 and 0.3151
  Ratio, H2AX_36_42 unmod: 1
  Ratio, H2AZ_1_19 K11ac: 0 and 0.03845 and 0.003881
  Ratio, H2AZ_1_19 unmod: 1 and 0.8991 and 0.9454
  Ratio, H3_73_83 K79me1: 0.07412 and 0.08491 and 0.08741
  Ratio, H3_73_83 K79me2: 0.05912 and 0.06141 and 0.04678
  Ratio, H3_73_83 unmod: 0.865 and 0.8523 and 0.8643
  Ratio, H4_4_17 K12acK16ac: 0.3308 and 0.002262 and 0.2125
  Ratio, H4_4_17 unmod: 0.05921 and 0.8851 and 0.358
  Ratio, H4_20_23 K20me1: 0 and 0.03437 and 0.03685
  Ratio, H4_20_23 unmod: 0.02728 and 0.02218 and 0.01429

From paper doi:10.1101/2025.04.25.650653, “Hierarchical small molecule inhibition of MYST acetyltransferases” (bioRxiv, 2025)
